# Patent US20220330549A1, “USE OF N-BENZYLBENZAMIDE-BASED COMPOUND AS HERBICIDE” (Northwest A&F University, priority 2020, published 2022)
# Key:
# Type in all cases: in vivo
# [1] = system: Barnyard grass; assay: Herbicidal activity test for indoor pre-emergence soil treatment; set-up: key: level 1-9; higher = more weed remaining vs blank control; conditions: 150 g a.i./ha, visual inspection 21 days after treatment
# Method in brief: (§1)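 Pre-emergence soil spray per NY/T 1155.3-2006: weed seeds sown in moistened neutral sandy loam (organic content ≤2%), covered with 0.5–2.0 cm soil, then sprayed 24 h later with a water-diluted 10% emulsifiable concentrate at 150 g(a.i.)/ha. Visual rating after 21 days on a 1–9 scale.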
# [2] = system: Piemarker; assay: as above; set-up: key: level 1-9; higher = more weed remaining vs blank control; conditions: 150 g a.i./ha, visual inspection 21 days after treatment
# Method in brief: as §1
# [3] = system: green bristlegrass; assay: as above; set-up: key: level 1-9; higher = more weed remaining vs blank control; conditions: 150 g a.i./ha, visual inspection 21 days after treatment
# Method in brief: as §1
# [4] = system: Amaranthus retroflexus; assay: as above; set-up: key: 1-9 levels; higher = more weed remaining vs blank control; conditions: 150 g a.i./ha, visual inspection 21 days after treatment
# Method in brief: as §1
# [5] = system: Digitaria sanguinalis; assay: as above; set-up: key: 1-9 levels; higher = more weed remaining vs blank control; conditions: 150 g a.i./ha, visual inspection 21 days after treatment
# Method in brief: as §1
# [6] = system: Humulus scandens; assay: as above; conditions: 150 g a.i./ha, visual inspection 21 days after treatment
# Method in brief: as §1
# [7] = system: Amaranthus retroflexus; assay: Herbicidal activity test for indoor post-emergence spraying on stems and leaves; set-up: key: grade level by weed remaining vs blank control, e.g. 5 = 10.1-15%; conditions: 150 g a.i./ha, visual inspection 21 days after treatment
# Method in brief: (§2)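 Run per NY/T 1155.4-2006: weeds sown, grown in greenhouse, then sprayed post-emergence on stems and leaves. Effect scored visually 21 days after treatment on a graded level scale relative to weed in the blank control area.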
# [8] = system: Barnyard grass; assay: as above; set-up: key: grade level by weed remaining vs blank control, e.g. 5 = 10.1-15%; conditions: 150 g a.i./ha, visual inspection 21 days after treatment
# Method in brief: as §2
# [9] = system: Digitaria sanguinalis; assay: as above; set-up: key: grade level by weed remaining vs blank control, e.g. 5 = 10.1-15%; conditions: 150 g a.i./ha, visual inspection 21 days after treatment
# Method in brief: as §2
# [10] = system: Humulus scandens; assay: as above; set-up: key: grade level by weed remaining vs blank control, e.g. 5 = 10.1-15%; conditions: 150 g a.i./ha, visual inspection 21 days after treatment
# Method in brief: as §2
# [11] = system: Piemarker; assay: as above; set-up: key: grade level by weed remaining vs blank control, e.g. 5 = 10.1-15%; conditions: 150 g a.i./ha, visual inspection 21 days after treatment
# Method in brief: as §2
# [12] = system: green bristlegrass; assay: as above; set-up: key: grade level by weed remaining vs blank control, e.g. 5 = 10.1-15%; conditions: 150 g a.i./ha, visual inspection 21 days after treatment
# Method in brief: as §2
# [13] = system: Broadleaf weed; assay: Post-emergence herbicidal activity test in a paddy field; set-up: key: level scale; higher level = more weed left vs blank control; conditions: 150 g a.i./ha (penoxsulam control 250 g(a.i.)/h)
# Method in brief: (§3)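 Efficacy was visually estimated 15 and 30 days after spraying, grading weed coverage relative to an untreated neighbouring plot (level 2 = 0 to 2.5%, level 9 = 67.6 to 100%). Treatments were 150 g(a.i.)/ha from 10% emulsifiable concentrates applied at the 4-5 leaf rice stage, four repeats of 50 m^2 each.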
# [14] = system: Cyperaceae; assay: as above; set-up: key: level scale; higher level = more weed left vs blank control; conditions: 150 g a.i./ha (penoxsulam control 250 g(a.i.)/h)
# Method in brief: as §3
# [15] = system: Gramineae; assay: as above; set-up: key: level scale; higher level = more weed left vs blank control; conditions: 150 g a.i./ha (penoxsulam control 250 g(a.i.)/h)
# Method in brief: as §3
# [16] = system: Acalypha australis; assay: Field test for weed control in a corn field; conditions: for Post-emergence weed control effect, Acalypha australis: 150 g a.i./ha, after treatment
# Method in brief: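 Post-emergence field trial in a corn field following GB/T 17980.42-2000. Test compounds were formulated as 10% emulsifiable concentrates, diluted in water, and sprayed at 150 g(a.i.)/ha when corn had 2 to 5 leaves, with 4 replicates on 20 m^2 plots. Mesotrione 25% oil dispersion served as the control agent. Weed control was scored on a 1-9 scale.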
# [17] = system: Amaranthus retroflexus; assay: Field test for weed control in a corn field; conditions: for Post-emergence weed control effect, Amaranthus retroflexus: 150 g a.i./ha, 30 days after treatment
# Method in brief: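 Field efficacy trial in a corn field following GB/T 17980.42-2000. Test compounds were formulated as 10% emulsifiable concentrates, diluted in water and sprayed post-emergence when corn had 2 to 5 leaves. Each treatment covered 20 m^2 with 4 replicates. A 25% mesotrione oil dispersion served as control. Damage to Amaranthus retroflexus was rated on a 1-9 scale against untreated blank plots.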
# [18] = system: Barnyard grass; assay: Field test for weed control in a corn field; conditions: for Post-emergence weed control effect, Barnyard grass: 150 g a.i./ha, 30 days after treatment
# Method in brief: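 Corn-field efficacy trial following GB/T 17980.42-2000. Test compounds were formulated as 10% emulsifiable concentrates, diluted in water and sprayed post-emergence at 150 g(a.i.)/ha when corn had 2 to 5 leaves. Each treatment was replicated 4 times on 20 m^2 plots. Barnyard grass control was rated on a 1-9 damage scale.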
# [19] = system: Chenopodium album; assay: Field test for weed control in a corn field; conditions: for Post-emergence weed control effect, Chenopodium album: 150 g a.i./ha, after treatment
# Method in brief: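 A corn-field efficacy trial following GB/T 17980.42-2000 tested post-emergence control of Chenopodium album. Test compounds formulated as 10% emulsifiable concentrates were diluted in water and sprayed at 150 g(a.i.)/ha when the corn had 2 leaves to 5 leaves, on 20 m^2 plots with 4 replicates. Herbicidal activity was rated on a 1-9 scale by damage symptoms and severity.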
# [20] = system: Convolvulus arvensis; assay: Field test for weed control in a corn field; conditions: for Post-emergence weed control effect, Convolvulus arvensis: 150 g a.i./ha, after treatment
# Method in brief: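 Field trial of weed control against Convolvulus arvensis in corn, run following GB/T 17980.42-2000. Test agents were formulated as 10% emulsifiable concentrates and sprayed in water at 150 g(a.i.)/ha when corn plants had 2 to 5 leaves. Each treatment was replicated 4 times on 20 m^2 plots, and 25% mesotrione oil dispersion served as the control agent.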
# [21] = system: Digitaria sanguinalis; assay: Field test for weed control in a corn field; conditions: for Post-emergence weed control effect, Digitaria sanguinalis: 150 g a.i./ha, after treatment
# Method in brief: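 Field trial in a corn field following GB/T 17980.42-2000. Test compounds were formulated as 10% emulsifiable concentrates, diluted in water and sprayed post-emergence at 150 g(a.i.)/ha when corn had 2 to 5 leaves, with 4 replicates on 20 m^2 plots. Control of Digitaria sanguinalis was scored on a 1-9 scale based on weed damage relative to the untreated blank area.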
# [22] = system: Portulaca oleracea; assay: Field test for weed control in a corn field; conditions: for Post-emergence weed control effect, Portulaca oleracea: 150 g a.i./ha, after treatment
# Method in brief: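 Field efficacy trial in corn following GB/T 17980.42-2000. Test compounds were prepared as 10% emulsifiable concentrates, diluted in water, and sprayed at 150 g(a.i.)/ha when corn had 2 to 5 leaves after sowing. Plots were 20 m^2 with 4 replicates per treatment. Herbicidal activity was scored on a 1-9 scale from weed damage symptoms and severity.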
# [23] = system: Solanum nigrum; assay: Field test for weed control in a corn field; conditions: for Post-emergence weed control effect, Solanum nigrum: 150 g a.i./ha, 30 days after treatment
# Method in brief: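 Post-emergence weed control was tested in a corn field following GB/T 17980.42-2000. Compounds were made into 10% emulsifiable concentrates, diluted in water and sprayed at 150 g(a.i.)/ha when corn had 2 to 5 leaves after sowing, in 20 m^2 plots with 4 replicates. Effects on Solanum nigrum were graded on a 1-9 scale relative to the blank control area.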
# [24] = system: goosegrass; assay: Field test for weed control in a corn field; conditions: for Post-emergence weed control effect, Goose grass: 150 g a.i./ha, after treatment
# Method in brief: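 Weed control efficacy against goosegrass was tested in a corn field following GB/T 17980.42-2000. Compounds formulated as 10% emulsifiable concentrates were diluted in water and sprayed post-emergence at 150 g(a.i.)/ha when corn had 2 to 5 leaves, with 4 replicates of 20 m^2 plots. Herbicidal activity was rated on a 1-9 scale by damage symptoms and severity.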
# [25] = system: green bristlegrass; assay: Field test for weed control in a corn field; conditions: for Post-emergence weed control effect, Green bristlegrass: 150 g a.i./ha, after treatment
# Method in brief: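 Post-emergence weed control was tested in a corn field following GB/T 17980.42-2000. When the corn had 2 leaves to 5 leaves after sowing, 10% emulsifiable concentrates diluted in water were sprayed at 150 g(a.i.)/ha on 20 m^2 plots, four replicates per treatment. Effects on green bristlegrass were scored on a 1-9 damage scale relative to the blank control area.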
# [26] = system: nutgrass flatsedge; assay: Field test for weed control in a corn field; conditions: for Post-emergence weed control effect, Nutgrass flatsedge: 150 g a.i./ha, after treatment
# Method in brief: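 A corn field efficacy trial following GB/T 17980.42-2000 assessed post-emergence control of nutgrass flatsedge. Test compounds were formulated as 10% emulsifiable concentrates, diluted in water, and sprayed at 150 g(a.i.)/ha when the corn had 2 to 5 leaves. Each treatment had 4 replicates on 20 m^2 plots. Herbicidal activity was graded on a 1-9 scale by damage symptoms and severity.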
# [27] = 150 g(a.i.)/ha, 21 days after treatments
structure (smiles),measurement,setting,value
Cc1cccc(C(=O)NCc2ccc(F)c(Cl)c2)n1 [Compound B30],Herbicidal Activity Barnyard grass,[1],1
same,Herbicidal Activity Piemarker,[2],1
same,Herbicidal Activity Green bristlegrass,[3],1
same,Herbicidal Activity Amaranthus retroflexus,[4],1
same,Herbicidal Activity Digitaria sanguinalis,[5],1
same,Herbicidal Activity Humulus scandens,[6],2 (equivalent to 0 to 2.5% of the weed in the blank control area)
same,Herbicidal Activity Amaranthus retroflexus,[7],1
same,Herbicidal Activity Barnyard grass,[8],1
same,Herbicidal Activity Digitaria sanguinalis,[9],1
same,Herbicidal Activity Humulus scandens,[10],1
same,Herbicidal Activity Piemarker,[11],1
same,Herbicidal Activity Green bristlegrass,[12],1
same,Herbicidal activity 15 days after treatment Broadleaf weed,[13],1
same,Herbicidal activity 30 days after treatment Broadleaf weed,[13],1
same,Herbicidal activity 15 days after treatment Cyperaceae,[14],1
same,Herbicidal activity 30 days after treatment Cyperaceae,[14],2 (equivalent to 0 to 2.5% of the weed in the blank control area)
same,Herbicidal activity 15 days after treatment Gramineae,[15],1
same,Herbicidal activity 30 days after treatment Gramineae,[15],1
same,"Post-emergence weed control effect, Acalypha australis",[16],1
same,controlling effect on Acalypha australis,[16]; [27],1
same,"Post-emergence weed control effect, Amaranthus retroflexus",[17],1
same,controlling effect on Amaranthus retroflexus,[17]; [27],1
same,"Post-emergence weed control effect, Barnyard grass",[18],1
same,controlling effect on barnyard grass,[18]; [27],1
same,"Post-emergence weed control effect, Chenopodium album",[19],1
same,controlling effect on Chenopodium album,[19]; [27],1
same,"Post-emergence weed control effect, Convolvulus arvensis",[20],1
same,controlling effect on Convolvulus arvensis,[20]; [27],1
same,"Post-emergence weed control effect, Digitaria sanguinalis",[21],1
same,controlling effect on Digitaria sanguinalis,[21]; [27],1
same,"Post-emergence weed control effect, Portulaca oleracea",[22],1
same,controlling effect on Portulaca oleracea,[22]; [27],1
same,"Post-emergence weed control effect, Solanum nigrum",[23],1
same,controlling effect on Solanum nigrum,[23]; [27],1
same,"Post-emergence weed control effect, Goose grass",[24],1
same,controlling effect on goosegrass,[24]; [27],1
same,"Post-emergence weed control effect, Green bristlegrass",[25],1
same,controlling effect on green bristlegrass,[25]; [27],1
same,"Post-emergence weed control effect, Nutgrass flatsedge",[26],1
same,controlling effect on nutgrass flatsedge,[26]; [27],1
COc1ccc(OC)c(C(=O)NCc2cc(F)cc(Cl)c2)c1 [Compound A28],Herbicidal Activity Barnyard grass,[1],1
same,Herbicidal Activity Piemarker,[2],1
same,Herbicidal Activity Green bristlegrass,[3],1
same,Herbicidal Activity Amaranthus retroflexus,[4],1
same,Herbicidal Activity Digitaria sanguinalis,[5],1
same,Herbicidal Activity Humulus scandens,[6],2 (equivalent to 0 to 2.5% of the weed in the blank control area)
same,Herbicidal Activity Amaranthus retroflexus,[7],1
same,Herbicidal Activity Barnyard grass,[8],1
same,Herbicidal Activity Digitaria sanguinalis,[9],1
same,Herbicidal Activity Humulus scandens,[10],1
same,Herbicidal Activity Piemarker,[11],1
same,Herbicidal Activity Green bristlegrass,[12],1
same,Herbicidal activity 15 days after treatment Broadleaf weed,[13],1
same,Herbicidal activity 30 days after treatment Broadleaf weed,[13],1
same,Herbicidal activity 15 days after treatment Cyperaceae,[14],2 (equivalent to 0 to 2.5% of the weed in the blank control area)
same,Herbicidal activity 30 days after treatment Cyperaceae,[14],1
same,Herbicidal activity 15 days after treatment Gramineae,[15],2 (equivalent to 0 to 2.5% of the weed in the blank control area)
same,Herbicidal activity 30 days after treatment Gramineae,[15],1
same,"Post-emergence weed control effect, Acalypha australis",[16],2 (equivalent to 0 to 2.5% of the weed in the blank control area)
same,"Post-emergence weed control effect, Amaranthus retroflexus",[17],1
same,"Post-emergence weed control effect, Barnyard grass",[18],1
same,"Post-emergence weed control effect, Chenopodium album",[19],1
same,"Post-emergence weed control effect, Convolvulus arvensis",[20],1
same,"Post-emergence weed control effect, Digitaria sanguinalis",[21],2 (equivalent to 0 to 2.5% of the weed in the blank control area)
same,"Post-emergence weed control effect, Portulaca oleracea",[22],1
same,"Post-emergence weed control effect, Solanum nigrum",[23],2 (equivalent to 0 to 2.5% of the weed in the blank control area)
same,"Post-emergence weed control effect, Goose grass",[24],2 (equivalent to 0 to 2.5% of the weed in the blank control area)
same,"Post-emergence weed control effect, Green bristlegrass",[25],1
same,"Post-emergence weed control effect, Nutgrass flatsedge",[26],2 (equivalent to 0 to 2.5% of the weed in the blank control area)
